Results: US20250064062A1, “METHOD FOR INCREASING THE EFFICACY OF A HERBICIDE” (BASF SE, priority 2021, published 2025)

Key:
Assay type in all cases: in vivo
Conditions in all cases: Dicamba 560 g ae/ha alone; Induce 0.25% v/v
[1] = tested on: velvetleaf (Abutilon theophrasti, ABUTH); experiment: Greenhouse trial: dicamba (Engenia) with copolymer CP1, postemergence weed control
[2] = tested on: common lambsquarters (Chenopodium album; OCHEAL); experiment: as above
[3] = tested on: waterhemp (Amaranthus tuberculatus, AMATA); experiment: as above
AMATA, ABUTH, CHEAL = experiment: Greenhouse trial: dicamba with copolymer CP1, mean over the three weed species

## COc1c(Cl)ccc(Cl)c1C(=O)O [Dicamba, dicamba]
[1]
  % Control (21 Days after Treatment) ABUTH: 53%
[2]
  % Control (21 Days after Treatment) CHEAL: 86%
[3]
  % Control (21 Days after Treatment) AMATA: 83%
AMATA, ABUTH, CHEAL
  % Control (21 Days after Treatment) Mean: 74%
